For assay [1], the target named is T1, human cloned 5-HT2A receptor, expressed in L929 cells (Homo sapiens, UniProt P28223).
T1 construct: expressed in transfected cells; host or cells: L929 cells
Briefly: In vitro radioligand binding affinity for 5-HT2A receptor ([125I]R91150). On the procedure:
The interaction of the compounds of Formula (I) with 5-HT2A and 5-HT2C receptors was assessed in in vitro radioligand binding experiments. In general, a low concentration of a radioligand with a high binding affinity for the receptor is incubated with a sample of a tissue preparation enriched in a particular receptor (1 to 5 mg tissue) in a buffered medium (0.2 to 5 ml). During the incubation, the radioligands bind to the receptor. When equilibrium of binding is reached, the receptor bound radioactivity is separated from the non-bound radioactivity, and the receptor bound activity is counted. The interaction of the test compounds with the receptors is assessed in competition binding experiments. Various concentrations of the test compound are added to the incubation mixture containing the tissue preparation and the radioligand. Binding of the radioligand will be inhibited by the test compound in proportion to its binding affinity and its concentration. The affinities of the compounds for the 5-HT2 receptors were measured by means of radioligand binding studies conducted with: (a) human cloned 5-HT2A receptor, expressed in L929 cells using [^125I]R91150 as radioligand and (b) human cloned 5-HT2C receptor, expressed in CHO cells using [^3H]mesulergine as radioligand.

The target in assay [2] is T2, human cloned 5-HT2C receptor, expressed in CHO cells (Homo sapiens, UniProt P28335).
T2 construct: expressed in transfected cells; host or cells: CHO cells
T2 sequence (P28335 33-458): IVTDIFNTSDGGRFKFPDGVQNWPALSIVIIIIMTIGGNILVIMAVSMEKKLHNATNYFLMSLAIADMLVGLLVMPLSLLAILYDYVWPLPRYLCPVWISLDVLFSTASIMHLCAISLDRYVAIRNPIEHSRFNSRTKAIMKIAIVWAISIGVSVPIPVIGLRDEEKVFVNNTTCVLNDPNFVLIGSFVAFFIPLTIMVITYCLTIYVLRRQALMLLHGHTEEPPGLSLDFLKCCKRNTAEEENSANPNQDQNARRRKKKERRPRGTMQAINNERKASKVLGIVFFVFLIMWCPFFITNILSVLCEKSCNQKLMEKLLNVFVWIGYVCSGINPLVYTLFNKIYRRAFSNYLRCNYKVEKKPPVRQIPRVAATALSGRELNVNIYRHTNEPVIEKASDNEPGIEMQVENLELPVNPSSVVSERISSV
Put plainly: In vitro radioligand binding affinity for 5-HT2C receptor ([3H]mesulergine). On the procedure: The interaction of the compounds of Formula (I) with 5-HT2A and 5-HT2C receptors was assessed in in vitro radioligand binding experiments. […] During the incubation, the radioligands bind to the receptor. When equilibrium of binding is reached, the receptor bound radioactivity is separated from the non-bound radioactivity, and the receptor bound activity is counted. The interaction of the test compounds with the receptors is assessed in competition binding experiments. Various concentrations of the test compound are added to the incubation mixture containing the tissue preparation and the radioligand. Binding of the radioligand will be inhibited by the test compound in proportion to its binding affinity and its concentration.

In assay [3] the target is T3, human Dopamine D2L receptor (Homo sapiens, UniProt P14416).
T3 construct: expressed in transfected cells; host or cells: CHO cells (frozen membranes)
Put plainly: In vitro binding affinity for human D2L receptor ([3H]Spiperone). The procedure: Frozen membranes of human Dopamine D2L receptor-transfected CHO cells were thawed, briefly homogenised using an Ultra-Turrax T25 homogeniser and diluted in Tris-HCl assay buffer containing NaCl, CaCl2, MgCl2, KCl (50, 120, 2, 1, and 5 mM respectively, adjusted to pH 7.7 with HCl) to an appropriate protein concentration optimised for specific and non-specific binding. Radioligand [^3H]Spiperone (NEN, specific activity ˜70 Ci/mmol) was diluted in assay buffer at a concentration of 2 nmol/L. Prepared radioligand (50 μl), along with 50 μl of either the 10% DMSO control, Butaclamol (10-6 mol/l final concentration), or compound of interest, was then incubated (30 min, 37° C.) with 400 μl of the prepared membrane solution. Membrane-bound activity was filtered through a Packard Filtermate harvester onto GF/B Unifilterplates and washed with ice-cold Tris-HCl buffer (50 mM; pH 7.7; 6×0.5 ml). Filters were allowed to dry before adding scintillation fluid and counting in a Topcount scintillation counter. Percentage specific bound and competition binding curves were calculated using S-Plus software (Insightful).

Assay [4] has as its target T4, NET (Rattus norvegicus, UniProt Q9WTR4).
T4 construct: Cortex from rat brain was collected and homogenised; from tissue; host or cells: rat brain cortex membranes
Put plainly: In vitro determination of NET reuptake inhibition ([3H]Nixosetine binding, rat brain cortex membranes). The procedure:
Cortex from rat brain was collected and homogenised using an Ultra-Turrax T25 and a Dual homogeniser in ice-cold homogenising buffer containing Tris, NaCl and KCl (50 mM, 120 mM and 5 mM, respectively, pH 7.4) prior to dilution to an appropriate protein concentration optimised for specific and non-specific binding. […] Membrane-bound activity was detected by filtration through a Packard Filtermate harvester onto GF/B Unifilterplates, washed with ice-cold Tris-HCl buffer, containing NaCl and KCl (50 mM, 120 mM and 4 mM; pH 7.4; 6×0.5 ml). Filters were allowed to dry for 24 h before adding scintillation fluid. Scintillation fluid was allowed to saturate filters for 24 h before counting in a Topcount scintillation counter. Percentage specific bound and competition binding curves were calculated using S-Plus software (Insightful).

The mark [5] stands for this setting: human cloned 5-HT2A receptor in L929 cells, [125I]R91150.
Setting [6] is: human cloned 5-HT2C receptor in CHO cells, [3H]mesulergine.
Setting [7] is: human D2L receptor-transfected CHO cell membranes, [3H]Spiperone.
The mark [8] stands for this setting: human cloned 5-HT2A receptor in L929 cells, [125I]R91150, read-out: h-5HT2A (converted).
The mark [9] stands for this setting: human cloned 5-HT2C receptor in CHO cells, [3H]mesulergine, read-out: h-5HT2C (converted).
Where [10] appears, read: human D2L receptor-transfected CHO cell membranes, [3H]Spiperone, read-out: h-D2L (converted).

Where two headings read alike, the source gives them in different places.

T4 sequence (Q9WTR4 1-597): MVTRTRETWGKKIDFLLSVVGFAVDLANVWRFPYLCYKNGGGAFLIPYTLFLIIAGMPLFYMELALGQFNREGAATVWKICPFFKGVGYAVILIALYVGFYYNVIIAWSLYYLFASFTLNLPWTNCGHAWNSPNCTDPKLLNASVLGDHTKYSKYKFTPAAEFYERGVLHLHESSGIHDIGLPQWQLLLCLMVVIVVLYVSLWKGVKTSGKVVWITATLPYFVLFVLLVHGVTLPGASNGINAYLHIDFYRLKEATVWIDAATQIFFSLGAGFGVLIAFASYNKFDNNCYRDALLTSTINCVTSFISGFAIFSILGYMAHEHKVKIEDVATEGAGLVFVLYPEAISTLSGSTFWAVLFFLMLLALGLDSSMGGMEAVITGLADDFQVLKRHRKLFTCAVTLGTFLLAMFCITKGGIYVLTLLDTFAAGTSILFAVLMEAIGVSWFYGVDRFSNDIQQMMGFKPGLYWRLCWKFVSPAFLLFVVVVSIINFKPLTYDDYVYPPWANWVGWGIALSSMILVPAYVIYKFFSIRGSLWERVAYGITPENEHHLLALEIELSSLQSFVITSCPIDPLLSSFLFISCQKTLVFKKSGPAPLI
T1 sequence (P28223 whole entry): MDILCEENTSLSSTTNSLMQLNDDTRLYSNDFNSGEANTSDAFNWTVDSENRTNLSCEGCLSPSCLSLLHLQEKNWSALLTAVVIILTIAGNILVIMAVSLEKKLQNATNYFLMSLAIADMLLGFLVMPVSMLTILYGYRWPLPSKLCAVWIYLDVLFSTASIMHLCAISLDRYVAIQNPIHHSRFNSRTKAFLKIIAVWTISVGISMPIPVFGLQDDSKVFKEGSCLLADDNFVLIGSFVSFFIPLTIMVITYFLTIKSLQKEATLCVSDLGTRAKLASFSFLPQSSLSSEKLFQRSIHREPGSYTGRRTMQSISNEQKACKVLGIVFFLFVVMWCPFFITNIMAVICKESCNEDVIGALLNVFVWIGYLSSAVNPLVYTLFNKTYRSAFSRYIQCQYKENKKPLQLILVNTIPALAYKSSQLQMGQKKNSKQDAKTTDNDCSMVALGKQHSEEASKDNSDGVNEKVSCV
T3 sequence (P14416 whole entry): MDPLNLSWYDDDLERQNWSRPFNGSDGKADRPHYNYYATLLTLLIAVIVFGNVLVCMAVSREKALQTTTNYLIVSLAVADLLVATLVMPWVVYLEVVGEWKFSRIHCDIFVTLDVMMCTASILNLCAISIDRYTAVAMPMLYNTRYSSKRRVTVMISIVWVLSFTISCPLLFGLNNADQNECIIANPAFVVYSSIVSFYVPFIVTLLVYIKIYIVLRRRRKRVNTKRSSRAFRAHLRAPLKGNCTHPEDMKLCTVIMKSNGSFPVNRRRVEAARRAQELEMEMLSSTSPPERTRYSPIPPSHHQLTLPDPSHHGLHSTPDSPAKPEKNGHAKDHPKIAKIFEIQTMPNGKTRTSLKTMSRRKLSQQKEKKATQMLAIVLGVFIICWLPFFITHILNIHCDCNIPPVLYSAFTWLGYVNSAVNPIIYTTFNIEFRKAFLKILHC

`CN1CCN2[C@H](C[C@@H]3c4ccccc4Cc4ccc(F)cc4[C@H]32)C1` [14a, (5aS,14bR,15a,R)-7-fluoro-2-methyl-1,3,4,5a,10,14b,15,1 5a-octahydro-2H-dibenzo-[3′,4′:6′,7′]cyclohepta[1′,2′:4,5]pyrrolo[1,2-a]pyrazine]: the IC50 was 1.26 nM in assay [1], 0.891 nM in assay [2] and 1.55 nM in assay [3]. Moreover, the “NET Reuptake Inhibition” value in assay [4] was 5.50.
As for `COC(=O)N1[C@@H](CN(C)C)C[C@@H]2c3ccccc3Cc3ccc(F)cc3[C@H]21` [36a, Methyl (2R,3aR, 12bS)-2-[(dimethylamino)methyl]-11-fluoro-3,3a,8,12b-tetrahydro dibenzo[3,4:6,7]cyclohepta[1,2-b]pyrrole-1(2H)-carboxylate], the h-5HT2A in assay [1] (setting [5]) is given as less than 6. This compound also registered a h-5HT2C in assay [2] (setting [6]) of less than 6. In assay [3] (setting [7]), this compound displayed a h-D2L of less than 6. In addition, the “NET Reuptake Inhibition” value in assay [4] stood at 6.16.
Take `CC(=O)N1[C@@H](CN(C)C)C[C@@H]2c3ccccc3Cc3ccc(F)cc3[C@H]21` [36b, [(2R,3aR, 1 2bS)-1-acetyl-11-fluoro-1,2,3,3a,8,12b-hexahydrodibenzo[3,4:6,7]cyclohepta[1,2-b]pyrrol-2-yl]-N,N-dimethylmethanamine]: the IC50 in assay [1] (setting [8]) is more than 1000 nM; in assay [2] (setting [9]), more than 1000 nM; in assay [3] (setting [10]), more than 1000 nM; in assay [4] it was 3890 nM.
For the compound `CN(C)C[C@H]1C[C@@H]2c3ccccc3Cc3ccc(F)cc3[C@H]2N1C=O` [36c], the h-5HT2A in assay [1] (setting [5]) stood at 6.26. This compound had a h-5HT2C in assay [2] (setting [6]) of 7.11. The compound further had a h-D2L in assay [3] (setting [7]) of 5.31. Besides, the “NET Reuptake Inhibition” value in assay [4] is recorded as 6.65.
Consider `CN(C)C[C@H]1C[C@@H]2c3ccccc3Cc3ccc(F)cc3[C@H]2N1` [37a, [(2R,3aR,12bS)-11-fluoro-1,2,3,3a,8,12b-hexahydrodibenzo[3,4:6,7]cyclohepta[1,2-b]-pyrrol-2-yl]-N,N-dimethylmethanamine], for which the IC50 in assay [1] (setting [8]) was 44.7 nM; in assay [2] (setting [9]) it was 50.1 nM; in assay [3] (setting [10]), 355 nM; in assay [4] it was 7.94 nM.
With `CN1C[C@@H]2C[C@@H]3c4ccccc4Cc4ccc(F)cc4[C@H]3N2C1` [compound 1, (4aS,13bR,14aS)-6-fluoro-2-methyl-1,2,3,4a,9,13b,14,14a-octahydrodibenzo-[3′,4′:6′,7′]cyclohepta[1′,2′:4,5]pyrrolo[1,2-c]imidazole], the IC50 in assay [1] (setting [8]) is 115 nM; in assay [2] (setting [9]), 151 nM; in assay [3] (setting [10]), 2240 nM; in assay [4], 115 nM.
Regarding `Fc1ccc2c(c1)[C@@H]1[C@H](C[C@H]3CNC(=S)N31)c1ccccc1C2` [compound 3, (4aS,13bR,14aS)-6-fluoro-1,4a,9,13b,14,14a-hexahydrodibenzo-[3′,4′:6′,7′]cyclohepta-[1′,2′:4,5]pyrrolo[1,2-c]imidazole-3(2H)-thione], the IC50 was more than 1000 nM in assay [1] (setting [8]), 240 nM in assay [2] (setting [9]) and more than 1000 nM in assay [3] (setting [10]). The “NET Reuptake Inhibition” value in assay [4] is on record as 5.24.
In the case of `CN1CC(=O)N2[C@@H](C[C@@H]3c4ccccc4Cc4ccc(F)cc4[C@H]32)C1` [compound 4, (5aS,14bR,15aS)-7-fluoro-2-methyl-1,2,3,5a,10,14b,15,15a-octahydro-4H-dibenzo [3′,4′:6′,7′]cyclohepta[1′,2′:4,5]pyrrolo[1,2-a]pyrazin-4-one], the IC50 in assay [1] (setting [8]), in assay [2] (setting [9]) and in assay [3] (setting [10]) was more than 1000 nM in each case. The “NET Reuptake Inhibition” value in assay [4] is less than 5.
For the compound `CN1C[C@H]2C[C@@H]3c4ccccc4Cc4ccc(F)cc4[C@H]3N2C1=O` [compound 7], the IC50 was more than 1000 nM in assay [1] (setting [8]), more than 1000 nM in assay [2] (setting [9]), more than 1000 nM in assay [3] (setting [10]) and 891 nM in assay [4].
On to `CSC1=NC[C@H]2C[C@@H]3c4ccccc4Cc4ccc(F)cc4[C@H]3N12` [compound 9, (4aS,13bR,14aR)-6-fluoro-3-(methylsulfanyl)-1,4a,9,13b,14,14a-hexahydrodibenzo-[3′,4′:6′,7′]cyclohepta[1′,2′:4,5]pyrrolo[1,2-c]imidazole], for which the IC50 in assay [1] (setting [8]) is more than 1000 nM; in assay [2] (setting [9]) it was more than 1000 nM; in assay [3] (setting [10]), more than 1000 nM; in assay [4] it was 3980 nM.
On to `COCC(=O)N1[C@@H](CN(C)C)C[C@@H]2c3ccccc3Cc3ccc(F)cc3[C@H]21` [compound 10, [(2R,3aR,12bS)-11-fluoro-1-(methoxyacetyl)-1,2,3,3a,8,12b-hexahydrodibenzo[3 ,4:6,7]cyclohepta[1,2-b]pyrrol-2-yl]-N,N-dimethylmethanamine], for which the IC50 in assay [1] (setting [8]) is 692 nM; in assay [2] (setting [9]), 427 nM; in assay [3] (setting [10]), more than 1000 nM; in assay [4] it was 4790 nM.
`O=C1NC[C@@H]2C[C@@H]3c4ccccc4Cc4ccc(F)cc4[C@H]3N12` [compound 15, (4aS,13bR,14aS)-6-fluoro-1,4a,9,13b,14,14a-hexahydrodibenzo[3′,4′:6′,7′]cyclohepta-[1′,2′:4,5]pyrrolo[1,2-c]imidazol-3(2H)-one]: the IC50 was 8320 nM in assay [1] (setting [8]), 2340 nM in assay [2] (setting [9]), more than 10000 nM in assay [3] (setting [10]) and 2400 nM in assay [4].
On to `CN1C[C@@H]2C[C@@H]3c4ccccc4Cc4ccc(F)cc4[C@H]3N2C1=O` [compound 16, (4aS,13bR,14aS)-6-fluoro-2-methyl-1,4a,9,13b,14,14a-hexahydrodibenzo[3′,4′:6′,7′]-cyclohepta[1′,2′:4,5]pyrrolo[1,2-c]imidazol-3(2H)-one], for which the IC50 in assay [1] (setting [8]), in assay [2] (setting [9]), in assay [3] (setting [10]) and in assay [4] was more than 10000 nM throughout.
In the case of `CN(C)C[C@H]1C[C@@H]2c3ccccc3Oc3ccc(F)cc3[C@H]2N1` [compound 17, [(2R,3aR,12bS)-11-fluoro-2,3,3a,12b-tetrahydro-lH-dibenzo[2,3 :6,7]oxepino[4,5-b]pyrrol-2-yl]-N,N-dimethylmethanamine], the IC50 in assay [1] (setting [8]) was 575 nM; in assay [2] (setting [9]), 501 nM; in assay [3] (setting [10]), 2340 nM; in assay [4], 7.41 nM.
With `CN(C)C[C@H]1C[C@@H]2c3ccccc3Cc3ccc(F)cc3[C@H]2S1` [compound 23, [(2R,3aR,12bS)-11-fluoro-3,3a,8,12b-tetrahydro-2H-dibenzo[3,4:6,7]cyclohepta[1,2-b]thien-2-yl]-N,N-dimethylmethanamine], the IC50 was 661 nM in assay [1] (setting [8]), 229 nM in assay [2] (setting [9]), 5010 nM in assay [3] (setting [10]) and 28.2 nM in assay [4].

For the origin of these results see patent US20090023721A1, “Novel Substituted Tetracyclic Tetrahydrofuran, Pyrrolidine and Tetrahydrothiophene Derivatives and Their Use as a Medicament” (priority 2005, published 2009).
